For one test, the system named is aorta rings. The experiment in a line: Vasorelaxant effect in vitro (phenylephrine-contracted aorta rings). Conditions: rabbit aorta rings, organ bath, phenylephrine contraction; read-out: IC50 (concentration needed to reduce the phenylephrine contraction by 50%). As for the experimental part:
B-1. Vasorelaxant Effect In Vitro
Rabbits are stunned by a blow to the neck and exsanguinated. The aorta is removed, freed from adhering tissue and divided into rings of a width of 1.5 mm. The rings are placed individually under an initial tension in 5 ml organ baths with Krebs-Henseleit solution which is at 37° C., is gassed with carbogen and has the following composition (in each case mM): sodium chloride: 119; potassium chloride: 4.8; calcium chloride dihydrate: 1; magnesium sulphate heptahydrate: 1.4; potassium dihydrogenphosphate: 1.2; sodium bicarbonate: 25; glucose: 10. The contractile force is determined with Statham UC2 cells, amplified and digitalized using A/D transducers (DAS-1802 HC, Keithley Instruments Munich), and recorded in parallel on linear recorders.
To produce a contraction, phenylephrine is added to the bath cumulatively in increasing concentration. After several control cycles, the substance to be investigated is added in each further run in increasing dosage in each case, and the height of the contraction achieved is compared with the height of the contraction reached in the last preceding run. This is used to calculate the concentration needed to reduce the magnitude of the control value by 50% (IC50 value). The standard administration volume is 5 μl; the DMSO content in the bath solution corresponds to 0.1%.

The target of test [1] is human phosphodiesterase 5 (PDE 5) (Homo sapiens (Human), UniProt O76074). The experiment in a line: Inhibition of human phosphodiesterase 5 (PDE 5), SPA assay. In kind it is biochemical. To be noted: PDE 5 preparation from human platelets, [8-3H] cGMP substrate. As for the experimental part:
B-6. Inhibition of Human Phosphodiesterase 5 (PDE 5)
PDE 5 preparations are obtained from human platelets by disruption (Microfluidizer®, 800 bar, 3 passes), followed by centrifugation (75 000 g, 60 min, 4° C.) and ion exchange chromatography of the supernatant on a Mono Q 10/10 column (linear sodium chloride gradient, elution with a 0.2-0.3M solution of sodium chloride in buffer (20 mM Hepes pH 7.2, 2 mM magnesium chloride). Fractions having PDE 5 activity are combined (PDE 5 preparation) and stored at −80° C.
To determine their in vitro action on human PDE 5, the test substances are dissolved in 100% DMSO and serially diluted. Typically, dilution series (1:3) from 200 μM to 0.091 μM are prepared (resulting final concentrations in the test: 4 μM to 0.0018 μM). In each case 2 μl of the diluted substance solutions are placed into the wells of microtitre plates (Isoplate-96/200W; Perkin Elmer). Subsequently, 50 μl of a dilution of the above-described PDE 5 preparation are added. The dilution of the PDE 5 preparation is chosen such that during the later incubation less than 70% of the substrate are converted (typical dilution: 1:100; dilution buffer: 50 mM Tris/hydrochloric acid pH 7.5, 8.3 mM magnesium chloride, 1.7 mM EDTA, 0.2% BSA). The substrate, [8-^3H] cyclic guanosine-3′,5′-monophosphate (1 μCi/μl; Perkin Elmer) is diluted 1:2000 with assay buffer (50 mM tris/hydrochloric acid pH 7.5, 8.3 mM magnesium chloride, 1.7 mM EDTA) to a concentration of 0.0005 μCi/μl. By addition of 50 μl (0.025 μCi) of the diluted substrate, the enzyme reaction is finally started. The test mixtures are incubated at room temperature for 60 min and the reaction is stopped by adding 25 μl of a suspension of 18 mg/ml yttrium scintillation proximity beads in water (phosphodiesterase beads for SPA assays, RPNQ 0150, Perkin Elmer). The microtitre plates are sealed with a film and left to stand at room temperature for 60 min. Subsequently, the plates are analysed for 30 s per well in a Microbeta scintillation counter (Perkin Elmer). IC50 values are determined using the graphic plot of the substance concentration against percentage PDE 5 inhibition.

Test [2] relates to recombinant guanylate cyclase reporter cell line. The test can be described thus: Effect on a recombinant guanylate cyclase reporter cell line. The class given is cell-based. On the procedure:
B-2. Effect on a Recombinant Guanylate Cyclase Reporter Cell Line
The cellular activity of the compounds according to the invention is determined using a recombinant guanylate cyclase reporter cell line, as described in F. Wunder et al., Anal. Biochem. 339, 104-112 (2005).

Take `CCC1(C)C(=O)Nc2nc(-c3nn(Cc4ccccc4F)c4ncc(F)cc34)nnc21` (single isomer, unassigned) [Example 7-1, 7-Ethyl-3-[5-fluoro-1-(2-fluorobenzyl)-1H-pyrazolo[3,4-b]pyridin-3-yl]-7-methyl-5,7-dihydro-6H-pyrrolo[2,3-e][1,2,4]triazin-6-one]: the IC50 is 59 nM in the test on aorta rings and 200 nM in test [1].
On to `CC1(CC2CC2)C(=O)Nc2nc(-c3nn(Cc4ccccc4F)c4ncc(F)cc34)nnc21` (single isomer, unassigned) [Example 5-1, 7-(Cyclopropylmethyl)-3-[5-fluoro-1-(2-fluorobenzyl)-1H-pyrazolo[3,4-b]pyridin-3-yl]-7-methyl-5,7-dihydro-6H-pyrrolo[2,3-e][1,2,4]triazin-6-one], for which the figures for the IC50 (in the test on aorta rings; in test [1]) were 321 nM and 350 nM, respectively.
The corresponding values for `CC1(CC2CC2)C(=O)Nc2nc(-c3nn(Cc4ccccc4F)c4ncc(F)cc34)nnc21` (single isomer, unassigned) [Example 5-2, 7-(Cyclopropylmethyl)-3-[5-fluoro-1-(2-fluorobenzyl)-1H-pyrazolo[3,4-b]pyridin-3-yl]-7-methyl-5,7-dihydro-6H-pyrrolo[2,3-e][1,2,4]triazin-6-one] are 661 nM and 250 nM.
The compound `CCOC(=O)/C=C/c1nc(-c2nn(Cc3ccccc3F)c3ncccc23)nc2c1C(C)(C)C(=O)N2` [Example 27, Ethyl 3-{2-[1-(2-fluorobenzyl)-1H-pyrazolo[3,4-b]pyridin-3-yl]-5,5-dimethyl-6-oxo-6,7-dihydro-5H-pyrrolo[2,3-d]pyrimidin-4-yl}acrylate] showed an IC50 in test [1] of 215 nM. For the same compound, the “MEC (minimum effective concentration)” value in test [2] was 300 nM.
For `CC1(C)C(=O)Nc2nc(-c3nn(Cc4ccccc4F)c4ncc(F)cc34)nc(CN3CCCC3=O)c21` [Example 54, 2-[5-Fluoro-1-(2-fluorobenzyl)-1H-pyrazolo[3,4-b]pyridin-3-yl]-5,5-dimethyl-4-[(2-oxopyrrolidin-1-yl)methyl]-5,7-dihydro-6H-pyrrolo[2,3-d]pyrimidin-6-one], the IC50 in test [1] is 145 nM. Moreover, the “MEC (minimum effective concentration)” value in test [2] was 100 nM.
In the same order, the values of `C=CCCC1(C)C(=O)Nc2nc(-c3nn(Cc4ccccc4F)c4ncccc34)nnc21` (racemic) [Example 23, (rac) (7S)-7-(But-3-en-1-yl)-3-[1-(2-fluorobenzyl)-1H-pyrazolo[3,4-b]pyridin-3-yl]-7-methyl-5,7-dihydro-6H-pyrrolo[2,3-e][1,2,4]triazin-6-one] are 140 nM and 30 nM.
The corresponding values for `CC1(C)C(=O)Nc2nc(-c3nn(Cc4ccccc4F)c4ncc(F)cc34)nc(CNS(=O)(=O)C3CC3)c21` [Example 55, N-({2-[5-Fluoro-1-(2-fluorobenzyl)-1H-pyrazolo[3,4-b]pyridin-3-yl]-5,5-dimethyl-6-oxo-6,7-dihydro-5H-pyrrolo[2,3-d]pyrimidin-4-yl}methyl)cyclopropanesulphonamide] are 190 nM and 30 nM.
The corresponding values for `CC1(C(=O)NC2CC2)C(=O)Nc2nc(-c3nn(CCC(F)(F)F)c4ncccc34)ncc21` (racemic) [Example 49, (rac) N-Cyclopropyl-5-methyl-6-oxo-2-[1-(3,3,3-trifluoropropyl)-1H-pyrazolo[3,4-b]pyridin-3-yl]-6,7-dihydro-5H-pyrrolo[2,3-d]pyrimidine-5-carboxamide] are 4000 nM and 300 nM.
Take `CCC1(C)C(=O)Nc2nc(-c3nn(Cc4ccccc4F)c4ncc(F)cc34)nnc21` (single isomer, unassigned) [Example 7-2, 7-Ethyl-3-[5-fluoro-1-(2-fluorobenzyl)-1H-pyrazolo[3,4-b]pyridin-3-yl]-7-methyl-5,7-dihydro-6H-pyrrolo[2,3-e][1,2,4]triazin-6-one]: the IC50 came out at 185 nM in the test on aorta rings and 350 nM in test [1].

Values taken from patent publication US9505786B2, “Substituted annulated triazines and use thereof” (BAYER INTELLECTUAL PROPERTY GMBH, priority 2012, dated 2016).
